Patent publication US20080132536A1, “PYRAZOLO [3,4-B] PYRIDINE COMPOUNDS, AND THEIR USE AS PDE4 INHIBITORS” (Glaxo Group Limited, priority 2003, published 2008)
Each block holds one molecule with its values, some of them ahead of it.

Assays:
conscious ferret = assay: In Vivo Assay 4: therapeutic index of orally-administered PDE4 inhibitors in the conscious ferret (LPS-induced pulmonary neutrophilia and emesis); design: species or system ferret (Mustela Pulorius Furo); conditions: p.o.
Protocol: PDE4 inhibitors are prepared for oral (p.o.) administration by dissolving in a fixed volume (ca. 1 ml) of acetone and then adding cremophor to ca. 20% of the final volume. Acetone is evaporated by directing a flow of nitrogen gas onto the solution. Once the acetone is removed, the solution is made up to final volume with distilled water. LPS is dissolved in phosphate buffered saline.
Male ferrets (Mustela Pulorius Furo, weighing 1-2 kg) are transported and allowed to acclimatise for not less than 7 days. The diet comprises SDS diet C pelleted food given ad lib with Whiskers™ cat food given 3 times per week. The animals are supplied with pasteurised animal grade drinking water changed daily.
PDE4 inhibitors are administered orally (p.o.), using a dose volume of ca. 1 ml/kg. […] The animals are constantly observed and any emetic episodes (retching and vomiting) or behavioural changes are recorded. […]
About thirty minutes after oral dosing with compound or vehicle control, the ferrets are placed into sealed perspex containers and exposed to an aerosol of LPS (ca. 30 μg/ml=ca. 30 ug/ml) for ca. 10 minutes. […] All emetic episodes and behavioural changes are recorded.
About six hours after LPS exposure the animals are killed by overdose of sodium pentobarbitone administered intraperitoneally. […] From this, the total number of neutrophils in the BAL sample is determined. […]

[1] = Excerpt: Micronisation usually involves subjecting the compound/salt to collisional and/or abrasional forces in a fast-flowing circular or spiral/vortex-shaped airstream often including a cyclone component.
In particle size measurements, D90, D50 and D10 respectively mean that 90%, 50% and 10% of the material is less than the micron size specified. D50 is the median particle size. DV90, DV50 and […] respectively mean that 90%, 50% and 10% by volume of the material is less than the micron size specified. DM90, DM50 and DM10 respectively mean that 90%, 50% and 10% by weight of the material is less than the micron size specified.
Laser diffraction measurement of particle size can use a dry method (wherein a suspension of the compound/salt in an airflow crosses the laser beam) or a wet method [wherein a suspension of the compound/salt in a liquid dispersing medium, such as isooctane or (e.g. if compound is soluble in isooctane) 0.1% Tween 80 in water, crosses the laser beam]. With laser diffraction, particle size is preferably calculated using the Fraunhofer calculation; and/or preferably a Malvern Mastersizer or Sympatec apparatus is used for measurement.
• Purpose: To micronise Example 73, 75, 98, 283, 304, 306, 307, 308, 309, 310, 311, 312, 313, 314 or 314A or 333 (described hereinafter), usually in an amount of approximately 600-1000 mg thereof, using a Jetpharma MC 1 micronizer. • The parent (unmicronised) and micronised materials are analyzed for particle size by laser diffraction and crystallinity by PXRD.
The micronizer is assembled. The narrow head of the venturi inlet is positioned below and slightly forward of the material inlet port and is measured with a micro-caliper to make sure that it is inserted correctly. The ring (R) and venturi (V) pressures are adjusted according to the values specified in the experimental design (refer to experimental section below) by adjusting the valves on the pressure gauges on the micronizer. The setup is checked for leakage by observing if there is any fluctuation in the reading of the pressure gauges.
Balance performance is checked with calibration weights. Specified amount of the parent material (see e.g. section on experimental run Procedure 1 for Example 307) is fed into the input container of the micronizer using a spatula. The input container plus material is weighed. The equipment pressure is monitored during the micronization process.
Upon completion of the micronising run, the nitrogen supply is shut off and the micronised material is allowed to settle into the micronizer container. The micronised powder in the micronizer container (collection vessel) and the cyclone (above the recovery vessel) are collected together into a pre-weighed and labelled collection vial. The weight of the micronised material is recorded. The input container is re-weighed in order to calculate the amount of input material by difference. The micronizer is disassembled and residual PDE4 compound on the micronizer inner surface is rinsed with 70/30 isopropyl alcohol/water and collected into a flask. The micronizer is then thoroughly cleaned in a Lancer washing machine and dried before subsequent runs are performed.

[2] = molecular target: T1, PDE4B (human recombinant) (Homo sapiens, UniProt Q07343); assay: PDE4B inhibition, radioactive SPA and/or IMAP fluorescence polarisation (FP) assay; assay type: biochemical; conditions: for IC50: one reading or average of several (ca. 2-6) readings, SPA and/or FP assay, range given for a group of Examples, read-out: PDE4B pIC50 (±about 0.5) (converted)
T1 construct: made in house
Excerpt: Human recombinant PDE4B, in particular the 2B splice variant thereof (HSPDE4B2B), is disclosed in WO 94/20079 and also M. M. McLaughlin et al., “A low Km, rolipram-sensitive, cAMP-specific phosphodiesterase from human brain: cloning and expression of cDNA, biochemical characterisation of recombinant protein, and tissue distribution of mRNA”, J. Biol. Chem., 1993, 268, 6470-6476. For example, in Example 1 of WO 94/20079, human recombinant PDE4B is described as being expressed in the PDE-deficient yeast Saccharomyces cerevisiae strain GL62, e.g. after induction by addition of 150 uM CuSO4, and 100,000×g supernatant fractions of yeast cell lysates are described for use in the harvesting of PDE4B enzyme.
The ability of compounds to inhibit catalytic activity at PDE4B or 4D (human recombinant), PDE3 (from bovine aorta), PDE5 (human recombinant) or PDE6 (from bovine retina) can optionally be determined by Scintillation Proximity Assay (SPA) in 96-well format.
Test compounds (as a solution in DMSO, preferably about 2 microlitre (ul) volume of DMSO solution) are preincubated at ambient temperature (room temperature, e.g. 19-23° C.) in Wallac Isoplates (code 1450-514) with PDE enzyme in 50 mM Tris-HCl buffer pH 7.5, 8.3 mM MgCl2, 1.7 mM EGTA, 0.05% (w/v) bovine serum albumin for 10-30 minutes (usually 30 minutes). The enzyme concentration is adjusted so that no more than 20% hydrolysis of the substrate defined below occurs in control wells without compound, during the incubation. For the PDE3, PDE4B and PDE4D assays, [5′,8-3H]Adenosine 3′,5′-cyclic phosphate (Amersham Pharmacia Biotech, code TRK.559; or Amersham Biosciences UK Ltd, Pollards Wood, Chalfont St Giles, Buckinghamshire HP8 4SP, UK) is added to give 0.05 uCi per well and about 10 nM final concentration. For the PDE5 and PDE6 assays, [8-^3H]Guanosine 3′,5′-cyclic phosphate (Amersham Pharmacia Biotech, code TRK.392) is added to give 0.05 uCi per well and about 36 nM final concentration. Plates containing assay mixture, preferably approx. 100 ul volume of assay mixture, are mixed on an orbital shaker for 5 minutes and incubated at ambient temperature for 1 hour. Phosphodiesterase SPA beads (Amersham Pharmacia Biotech, code RPNQ 0150) are added (about 1 mg per well) to terminate the assay. Plates are sealed and shaken and allowed to stand at ambient temperature for 35 minutes to 1 hour (preferably 35 minutes) to allow the beads to settle. Bound radioactive product is measured using a WALLAC TRILUX 1450 Microbeta scintillation counter. For inhibition curves, 10 concentrations (1.5 nM-30 uM) of each compound are assayed. Curves are analysed using ActivityBase and XLfit (ID Business Solutions Limited, 2 Ocean Court, Surrey Research Park, Guildford, Surrey GU2 7QB, United Kingdom) Results are expressed as pIC50 values.
The ability of compounds to inhibit catalytic activity at PDE4B (human recombinant) or PDE4D (human recombinant) can optionally be determined by IMAP Fluorescence Polarisation (FP) assay (IMAP Explorer kit, available from Molecular Devices Corporation, Sunnydale, Calif., USA; Molecular Devices code: R8062) in 384-well format.
The IMAP FP assay is able to measure PDE activity in an homogenous, non-radioactive assay format. The FP assay uses the ability of immobilised trivalent metal cations, coated onto nanoparticles (tiny beads), to bind the phosphate group of Fl-AMP that is produced on the hydrolysis of fluorescein-labelled (Fl) cyclic adenosine mono-phosphate (Fl-cAMP) to the non-cyclic Fl-AMP form. […] Binding of Fl-AMP product to the beads (coated with the immobilised trivalent cations) slows the rotation of the bound Fl-AMP and leads to an increase in the fluorescence polarisation ratio of parallel to perpendicular light. Inhibition of the PDE reduces/inhibits this signal increase. […]

[3] = micronised, V = 5 to 7 bar, R = 3 to 4 bar

T1 sequence (Q07343 1-564 isoform Q07343-2): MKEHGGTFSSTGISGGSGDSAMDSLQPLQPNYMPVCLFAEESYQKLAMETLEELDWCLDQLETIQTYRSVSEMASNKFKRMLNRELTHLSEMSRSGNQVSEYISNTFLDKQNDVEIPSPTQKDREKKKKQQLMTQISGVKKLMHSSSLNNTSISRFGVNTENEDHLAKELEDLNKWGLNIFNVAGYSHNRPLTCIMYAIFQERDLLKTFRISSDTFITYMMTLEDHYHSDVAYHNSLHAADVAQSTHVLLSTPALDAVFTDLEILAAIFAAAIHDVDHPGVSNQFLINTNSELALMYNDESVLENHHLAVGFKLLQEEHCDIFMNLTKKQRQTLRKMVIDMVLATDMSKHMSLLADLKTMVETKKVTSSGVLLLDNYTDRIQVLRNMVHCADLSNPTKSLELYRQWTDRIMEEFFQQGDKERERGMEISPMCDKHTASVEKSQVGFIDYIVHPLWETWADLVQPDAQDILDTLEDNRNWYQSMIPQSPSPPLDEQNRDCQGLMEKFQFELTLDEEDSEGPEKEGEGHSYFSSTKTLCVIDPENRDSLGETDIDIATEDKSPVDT

SMILES: O=C(Nc1c(Cl)cncc1Cl)c1ccc(OC(F)F)c(OCC2CC2)c1 [roflumilast]
D20 for emesis (dose giving 20% incidence of emesis) (conscious ferret): about 0.46 mg/kg | D50 for ferret neutrophilia (dose giving 50% inhibition of LPS-induced pulmonary neutrophilia) (conscious ferret): about 0.42 mg/kg

Particle Size Data D10 (micronised material) [1, 3]: D10 = 0.84 microns | Particle Size Data D50 (micronised material) [1, 3]: D50 = 1.56 microns | Particle Size Data D90 (micronised material) [1, 3]: D90 = 2.74 microns | Particle Size Data D10 (unmicronised material) ([1]; unmicronised): D10 = 2.48 microns | Particle Size Data D50 (unmicronised material) ([1]; unmicronised): D50 = 8.98 microns | Particle Size Data D90 (unmicronised material) ([1]; unmicronised): D90 = 24.14 microns
SMILES: CCC(NC(=O)c1cnc2c(cnn2CC)c1NC1CCOCC1)c1ccc(C)cc1C.Cl (single isomer, unassigned; enantiomer 2) [Example 307, N-[1-(2,4-dimethylphenyl)propyl]-1-ethyl-4-(tetrahydro-2H-pyran-4-ylamino)-1H-pyrazolo[3,4-b]pyridine-5-carboxamide (Enantiomer 2) hydrochloride]

IC50 [2]: 0.1 to 2 nM
SMILES: CCn1ncc2c(NC3CCCC(O)C3)c(C(=O)NC(C)c3ccc(C)cc3)cnc21 (mixture of isomers) [Example 283, 1-ethyl-4-{[(1S,3R)-and/or (1R,3S)-3-hydroxycyclohexyl]amino}-N-[(1R)-1-(4-methylphenyl)ethyl]-1H-pyrazolo[3,4-b]pyridine-5-carboxamide]

IC50 [2]: 0.501 to 3.16 nM
SMILES: CCn1ncc2c(NC3CCC(C(N)=O)CC3)c(C(=O)N[C@H](C)c3ccc(Br)cc3)cnc21 (mixture of isomers) [Example 351, 4-{[4-(aminocarbonyl)cyclohexyl]amino}-N-[(1R)-1-(4-bromophenyl)ethyl]-1-ethyl-1H-pyrazolo[3,4-b]pyridine-5-carboxamide]

IC50 [2]: 0.1 to 2 nM
SMILES: CCn1ncc2c(NC3CCCCC3)c(C(=O)N[C@H](C)c3ccc(C)cc3)cnc21 [Example 139, 4-(cyclohexylamino)-1-ethyl-N-[(1R)-1-(4-methylphenyl)ethyl]-1H-pyrazolo[3,4-b]pyridine-5-carboxamide]

IC50 [2]: 31.6 to 70.8 nM
SMILES: CCn1ncc2c(NC3CCOCC3)c(C(=O)N[C@@H](CO)c3ccccc3)cnc21 [Example 26, 1-ethyl-N-[(1R)-2-hydroxy-1-phenylethyl]-4-(tetrahydro-2H-pyran-4-ylamino)-1H-pyrazolo[3,4-b]pyridine-5-carboxamide]

PDE4B inhibitory activity compared with the comparable Example of opposite stereochemistry at the CR4R5 (benzylic) carbon atom ([2]; comparators: Examples 6, 7, 29, 26, 64, 126, 124, 170, 177): greater PDE4B inhibitory activity | IC50 [2]: 0.794 to 5.01 nM
SMILES: CCn1ncc2c(NC3CCOCC3)c(C(=O)N[C@H](CO)c3ccccc3)cnc21 [Example 28, 1-ethyl-N-[(1S)-2-hydroxy-1-phenylethyl]-4-(tetrahydro-2H-pyran-4-ylamino)-1H-pyrazolo[3,4-b]pyridine-5-carboxamide]
